Results as given in ChEMBL document CHEMBL1125340, “Inhibition of hog liver folylpolyglutamate synthetase by 5-substituted 5,8-dideaza analogues of folic acid bearing a terminal L-ornithine residue” (J Med Chem, 1992).

tested on: Folylpolyglutamate synthase (Sus scrofa); experiment: The ratio of Kinetic constant Vmax / Binding constant Km at homogenous Hog Liver Folyl polyglutamate Synthetase (FPGS).

Going from `NCCCC(NC(=O)c1ccc(CNc2ccc3nc(N)nc(O)c3c2Cl)cc1)C(=O)O` (centres undefined) to `NCCCC(NC(=O)c1ccc(CNc2ccc3nc(N)nc(O)c3c2F)cc1)C(=O)O` (centres undefined), the Ratio falls from 102 to 64.

Compared with `NCCCC(NC(=O)c1ccc(NCc2ccc3nc(N)nc(O)c3c2C(F)(F)F)cc1)C(=O)O` (centres undefined), `NCCCC(NC(=O)c1ccc(CNc2ccc3nc(N)nc(O)c3c2C(F)(F)F)cc1)C(=O)O` (centres undefined) is lower in Ratio: 121 for the first, 118 for the second.
